These results are taken from patent US20240024494A1, “SMALL-MOLECULE CONJUGATE AND USE THEREOF” (SHANGHAI MEWSGEN BIOTECHNOLOGY CO., LTD, priority 2020, published 2024).

In general, IC50 refers to the point on the concentration scale where inhibition reaches its midpoint.

A value given as a limit tells only on which side of the number the result lay.

Assay [1] concerns MGC803 (human gastric carcinoma cells). The format is cell-based. The settings on record: 72 h. The source says:
(§1) A part of the compounds of the examples of the present disclosure were subjected to a tumor cell proliferation inhibition test by using an MTT method (e.g. Pharmacological Research Method of New Drug, 2007: 242-243, edited by Lu Qiujun).
(§2) A cell strain was selected from KYSE-150 (human esophageal squamous carcinoma cells), MGC803 (human gastric carcinoma cells), and SHG44 (human glioma cells), and frozen and passaged by a pharmacological laboratory of Shanghai Institute of Pharmaceutical Industry. A culture solution was DMEM+10% FBS+double antibody.
(§3) In-vitro activity test: 100 μL of a cell suspension at a concentration of 4-5×10^4/mL was added to each well of a 96-well plate, and placed in a 5% CO2 incubator at 37° C. After 24 h, a sample solution was added at 10 μL/well, double duplicate wells were set, and a reaction was performed at 37° C. with 5% CO2 for 72 h. 20 μL of 5 mg/ml of an MTT solution was added into each well and reacted for 4 h, a dissolving solution was added at 100 μL/well, the mixture was placed in an incubator, and after dissolution, an OD value at 570 nm was measured with a full-wavelength multifunctional microplate reader. An inhibition rate (IR) and a median inhibitory concentration (IC50) were calculated by using an Excel software.
(§4) The inhibition rate (IR %) of the drug on cell growth was calculated according to the following equation: […]

The subject of assay [2] is SHG44 (human glioma cells). The class given is cell-based. The settings on record: 72 h.
From the text: as §1, §2, §3, §4

The subject of assay [3] is tumor cell strains (colon cancer, pancreatic cancer, esophageal squamous carcinoma, gastric cancer, glioma). Description: Summary of in-vitro proliferation inhibition on tumor cell strains (Examples 19-21). The class given is cell-based, human. As for the experimental part: (§5) A part of the compounds prepared in the examples of the present disclosure were subjected to a tumor cell proliferation inhibition test by using a CCK-8 method. A cell line HCT116 (human colon carcinoma cells) and SW1990 (human pancreatic carcinoma cells) were purchased from Shanghai Meixuan Technology Co., Ltd. Samples (a part of the compounds prepared in the examples) were dissolved in DMSO (Merck), prepared into a concentration of 10 mM, and finally triply diluted in DMEM or McCoy's 5A 1640 medium to 8 concentration gradients. A cell culture solution was collected when a cell culture met a test requirement, 10 μL of the cell culture solution was uniformly coated on a cell counting plate, cells were counted for 3 times under a microscope, and a cell density was calculated by taking an average value; and a 96-well plate (Corning, #3599) was taken, 200 μL of the cell culture solution was added into each well for cell inoculation at a cell concentration of 6×10^3 cells per well, and the inoculated 96-well plate was incubated in a cell incubator containing 5% CO2 at 37° C. for 24 h. An old culture medium was removed by suction, 200 μL of the triply diluted sample DMEM or McCoy's 5A 1640 medium at an initial concentration of 10 μmol/L was added to each well, the DMSO content was controlled to be 1%, three duplicate wells were set, PBS was used as a blank control, and the plate was incubated in the incubator for 72 h. The original DMEM or McCoy's 5A 1640 medium in the 96-well plate and a PBS buffer in a final row were sucked out, a prepared CCK-8 solution (90% DMEM or McCoy's 5A 1640 medium+10% CCK-8) was added, the mixture was incubated in an incubator, and an absorbance was read by using a Biotek microplate reader. Cell growth inhibition rate IC %=(blank control well OD value−administration well OD value)/blank control well OD value×100%.
as §3
A part of the compounds prepared in the examples of the present disclosure were subjected to a tumor cell proliferation inhibition test by using a CCK-8 method. Cell lines HCT116 (human colon cancer cells), MGC803 (human gastric cancer cells), and MIA PACA-2 (human pancreatic cancer cells) were purchased from Shanghai Meixuan Technology Co., Ltd. Samples (a part of the compounds prepared in the examples) were dissolved in DMSO (Merck), prepared into a concentration of 10 mM, and finally triply diluted in DMEM or McCoy's 5A 1640 medium to 8 concentration gradients. A cell culture solution was collected when a cell culture met a test requirement, 10 μL of the cell culture solution was uniformly coated on a cell counting plate, cells were counted for 3 times under a microscope, and a cell density was calculated by taking an average value; and a 96-well plate (Corning, #3599) was taken, 200 μL of the cell culture solution was added into each well for cell inoculation at a cell concentration of 6×10^3 cells per well, and the inoculated 96-well plate was incubated in a cell incubator containing 5% CO2 at 37° C. for 24 h. […]

Assay [4] deals with HCT116 (human colon cancer cells). Description: Tumor cell proliferation inhibition test, CCK-8 method (Example 21). The format is cell-based. The following applies: Homo sapiens, HCT-116; CCK-8, 72 h, Table 3; read-out: IC50 HCT116. As for the experimental part:
as §5, with “method. Cell lines” for “method. A cell line”, “colon cancer cells), MGC803 (human gastric cancer cells),” for “colon carcinoma cells)”, “and MIA PACA-2” for “and SW1990”, “pancreatic cancer” for “pancreatic carcinoma”
In general terms: Tetrazolium dyes change colour on reduction, which living cells bring about.

Assay [5] relates to MGC803 (human gastric cancer cells). The assay is described as above. The format is cell-based. The following applies: Homo sapiens, MGC-803; CCK-8, 72 h, Table 3; read-out: IC50 MGC803. As for the experimental part:
as §5, with “method. Cell lines” for “method. A cell line”, “colon cancer cells), MGC803 (human gastric cancer cells),” for “colon carcinoma cells)”, “and MIA PACA-2” for “and SW1990”, “pancreatic cancer” for “pancreatic carcinoma”

The subject of assay [6] is MIA PACA-2 (human pancreatic cancer cells). The description is as above. The class given is cell-based. The following applies: Homo sapiens, MIA PaCa-2; CCK-8, 72 h, Table 3; read-out: IC50 MIA PACA-2. As for the experimental part: as §5, with “method. Cell lines” for “method. A cell line”, “colon cancer cells), MGC803 (human gastric cancer cells),” for “colon carcinoma cells)”, “and MIA PACA-2” for “and SW1990”, “pancreatic cancer” for “pancreatic carcinoma”

In the case of `COc1cc(C(=O)NCCOCCOCCOCCOCCC(=O)N[C@@H](C(=O)N[C@@H](CCCNC(N)=O)C(=O)Nc2ccc(COC(=O)N3CCN(C(=O)O[C@H]4CC[C@@]5(C)[C@H](CC[C@@H]6[C@@H]5[C@H](O)C(=O)[C@]5(C)[C@@H](c7ccc(=O)oc7)CC[C@]65O)C4)CC3)cc2)C(C)C)ccc1NC(=O)[C@@H]1N[C@@H](CC(C)(C)C)[C@](C#N)(c2ccc(Cl)cc2F)[C@H]1c1cccc(Cl)c1F` [Compound I-1], the IC50 in assay [1] was 9 nM; in assay [2], 3 nM. In addition, in assay [3], the “Proliferation inhibition activities IC50 on most tumor cell strains (in words)” value is “between several to hundreds of nanomoles”.
For `COc1cc(C(=O)O)ccc1NC(=O)[C@@H]1N[C@@H](CC(C)(C)C)[C@](C#N)(c2ccc(Cl)cc2F)[C@H]1c1cccc(Cl)c1F` [Idasanutlin, reference compound], the concentration for half-maximal inhibition (IC50) in assay [4] is 110 nM; in assay [5] it was 1090 nM; in assay [6], > 10000 nM.
